The term melting point denotes the temperature of the solid-liquid transition.

`Cn1ncnc1COc1nc2c(-c3ccccc3)nncc2cc1-c1ccccc1` [Example 1, 3,8-Diphenyl-2-(2-methyl-2H-[1,2,4]triazol-3-ylmethoxy)pyrido[2,3-d]pyridazine] had a melting point of 222 to 223 °C.

The record behind these values is patent US6593325B1, “Pyrido-pyridazine derivatives as ligands for GABA receptors” (Merck Sharp & Dohme Ltd., priority 1999, dated 2003).
